These results are taken from patent publication US7772367B2, “C-terminal p53 palindromic peptide that induces apoptosis of cells with aberrant p53 and uses thereof” (The Trustees of Columbia University in the City of New York, priority 2004, dated 2010).

The test system of data set [1] is 9L rat glioma. Put plainly: Survival of rats with intracerebral 9L glioma infused with adenovirus. In kind it is in vivo, male fischer rats. To be noted: concluding statement of rat glioma study. Here is the method: Survival analysis of male rats initially injected with 5 μl of 10^5 9L cells over […] (Tumor implantation) through a catheter stereotactically inserted into the right caudate nucleus. These rats were subsequently infused with 7-8 μl volumes per day over 3 hours a day for a total of 7 days in three groups as follows: 2 rats received phosphate buffered saline (PBS control) solution, 3 rats received Ad/vector control virus (Empty Virus Control), and 10 rats received Ad/4-rep-p53p adenovirus containing the tetrapeptide C-terminal p53 peptide.) The average survival time for the groups were: 20 days for the PBS control group, 27 days for the adenovirus vector control group (23.25 days for the combined control groups) and 37.25 days for the Ad/4-rep-p53p Adenovirus treated group. Thus, the treatment group infected with the adenovirus containing the C-terminal palindromic tetrapeptide experienced an 86% increase in survival compared to the PBS controls and a 60% increase in survival compared to the combined controls. […]
For animal studies, 15 male fischer rats (age 12-14 weeks, 250 g) were anesthetized, and a 20 gauge plastic guide cannula was cemented into their skulls. […] The rats were monitored for an additional 44 days to determine differences in survival among groups.

The test system of data set [2] is MDA-MB-468 tumors. Put plainly: Inducible expression in MDA-MB-468 tumors in athymic nude mice. In kind it is in vivo. The following applies: doxycycline 0.5 mg/ml in drinking water; described in present tense. Here is the method: Four groups of ten animals each are used. Groups 1 and 2 are injected with one million MDA-MB-468 cells containing the inducibly expressible palindromic tetramer in 0.5 ml of basement membrane media. Groups 3 and 4 are injected with one million MDA-MB-468 cells containing the inducibly expressible GFP. The tumors are allowed to develop to a measurable state (approximately 2-3 weeks). Then groups 1 and 3 are given 0.5 mg/ml doxycycline in their drinking water, and groups 2 and 4 are given drinking water without doxycycline. Tumor sizes are measured daily. Animals are then euthanized and the tumors removed for analysis. Tumor sections are assayed for levels of apoptosis by DNA cleavage assay (TUNEL) and activation of caspases and cleavage of PARP.

For data set [3], the system named is normal cells including the pluripotent stem cells for granulocytes, erythrocytes, monocytes and macrophages. Kind of data set: Effect on normal cells. In kind it is cell-based.
Data set [4] concerns MDA-MB-468 cells. Put plainly: Trypan blue exclusion in tetracycline-inducible peptide-expressing cells. In kind it is cell-based, human. To be noted: doxycycline induction 24-48 hours. The source says: The MDA-MB-468 breast cancer cell line which expresses high levels of mutant p53 (Arg to His substitution at amino acid 273, one of the two most common p53 mutations in human cancers) was chosen as the model system. The tetracycline-inducible RevTet-On System (Clontech Laboratories, Palo Alto, Calif.) was used for these studies. Stably expressed reverse tetracycline-controlled transactivator (rtTA), under the control of a CMV promoter, was first established in the MDA-MB-468 cell line. Initially immunoblots with an antibody against the transactivator were used to identify high expression; subsequently a luciferase reporter system was used to identify highly inducible clones. This assay incorporated a luciferase reporter (Promega, Madison, Wis.) with the inducible pREvTRE vector of the RevTet-On system to measure the ability of tetracycline to induce luciferase activity. […]
(§1) For the tetracycline-inducible peptide systems in MDA-MB-468 cells, cells were exposed to various concentrations of doxycycline for 24-48 hours and cell death measured by trypan blue exclusion (only dying cells are permeable to this dye) and propidium iodide staining (as above, in cells undergoing apoptosis DNA is cleaved so less PI can be bound resulting in accumulation of a sub-G1 peak of cells on flow cytometry). […]

In data set [5] the test system is MDA-MB-468 cells. Kind of data set: Propidium iodide staining / flow cytometry (sub-G1) in tetracycline-inducible peptide-expressing cells. In kind it is cell-based, human. The protocol:
Effects of endogenous, regulated expression of the 4 repeat peptide on cell viability. MDA-MB-468 cells engineered to express the palindromic p53 4 repeat peptide under the control of a tetracycline responsive promoter were cultured without or with the addition of 2 μg/ml doxycycline, an analog of tetracycline, for 24, 48 or 72 hours. Cells were collected, fixed in ice cold 70% ethanol and the DNA was stained with propidium iodide. Cell cycle profiles were obtained by flow cytometry and the percent of sub-G1 cell particles, indicative of apoptosis, was quantified.
The MDA-MB-468 breast cancer cell line which expresses high levels of mutant p53 (Arg to His substitution at amino acid 273, one of the two most common p53 mutations in human cancers) was chosen as the model system. The tetracycline-inducible RevTet-On System (Clontech Laboratories, Palo Alto, Calif.) was used for these studies. […]
as §1
Background: Flow cytometry measures light scatter and fluorescence of single cells or particles in a stream.

The subject of data set [6] is p53 responsive proteins (Bax, Fas, caspase 8) and PARP in engineered MDA-MB-468 cells. Put plainly: Immunoblot of p53 responsive proteins and PARP cleavage after doxycycline induction. In kind it is cell-based, human. To be noted: for PARP cleavage product: after 4-repeat induction with doxycycline; for Bax expression: doxycycline 2 μg/ml, 12, 36 and 48 hours. The protocol:
Changes in the protein expression levels for the pro-apoptotic protein Bax, an active p53 responsive gene, induced by exposure to the tetracycline analog doxycycline (2 μg/ml) for 12, 36 and 48 hours. Engineered MDA-MB-468 cells were collected after the indicated exposure times and the total protein was extracted, an aliquot was run on a 12% acrylamide/SDS PAGE gel, and blotted onto nitrocellulose membranes. Antibodies specific for Bax, the 4-repeat (p53) and PARP were used to determine expression levels and α-tubulin was used as a loading control.
Changes in the protein expression levels for the p53 responsive genes encoding Fas and caspase 8, 24 hours after the engineered MDA-MB-468 cells were exposed to the indicated concentrations of doxycycline. A PARP cleavage product is also shown. α-tubulin was used as a loading control.
For the tetracycline-inducible peptide systems in MDA-MB-468 cells, cells were exposed to various concentrations of doxycycline for 24-48 hours and cell death measured by trypan blue exclusion (only dying cells are permeable to this dye) and propidium iodide staining (as above, in cells undergoing apoptosis DNA is cleaved so less PI can be bound resulting in accumulation of a sub-G1 peak of cells on flow cytometry). […] This implies a unique difference between the monomer and the 4 repeat.
(§2) Furthermore, using a specific inhibitor for caspase 8 eliminated the death induced by the C-terminal p53 palindromic tetrapeptide expression. The cleavage of the DNA repair signal protein poly-adenosyl-ribose polymerase (PARP), a key indicator of apoptosis, was also observed with the C-terminal p53 palindromic tetramer expression (FIGS. 5 and 6). Finally, one of the later events to occur as cells are undergoing apoptosis is the endonuclease cleavage of chromatin DNA at the DNA linker site between nucleosomes. These DNA fragments can be end-labeled with fluorescent-dUTP with the use of terminal deoxynucleotidyl transferase. This technique, called TUNEL, is extremely sensitive for the detection of apoptosis. We used a commercial TUNEL assay (Medical & Biological Labs, Nagoya, Japan) with flow cytometry to examine these engineered cells. By this assay, 80% of the cells were killed with induction of the 4 repeat by doxycycline treatment (FIG. 7). Furthermore, by using a specific inhibitor for caspase 8, IETD-FMK ([…], Nagoya, Japan), death induced by the C-terminal p53 palindromic peptide expression (FIG. 7) was eliminated. All of these findings support an apoptotic mechanism of cell death by this peptide.
For orientation: In western blotting, separated proteins are transferred to a membrane and probed.

Data set [7] relates to MDA-MB-468 human breast cancer cells. Put plainly: Propidium iodide staining / flow cytometry (sub-G1) of cells exposed to purified peptide. In kind it is cell-based. The following applies: 30 uM peptide, 6 hours. The protocol:
Effects of the C-Terminal p53 Palindromic Tetrapeptide on Cells in Culture. MDA-MB-468 human breast cancer cells were grown in culture and exposed for 6 hours with no peptide (control) or with 30 μM of either the single p53 C-terminal peptide fused to the Ant carrier (p53-Ant) or with the His tagged p53 palindromic tetrapeptide fused to the Ant carrier (4 Repeat). The DNA within the cells was then stained with propidium iodide and cell particles were assayed by flow cytometry. The percent within each graph represents the percent cell particles with less than a diploid amount of DNA, indicative of apoptotic cells (sub G1 population).
In order to test the effect of the C-terminal p53 palindromic peptide cloned in E. Coli on cells in culture, the purified peptide was incubated at 30 μM with the human breast cancer cell line MDA-MB-468, and the effects compared to original monomer or single C-terminal peptide. Prior experiments had shown that exposure at this concentration was less than the IC50 for the original peptide. […] The DNA content was then quantified by flow cytometry in a FACSCalibur Cell Sorter (BD Bioscience, San Diego, Calif.). Cell cycle profiles were obtained, and the percentage of cells containing less than the diploid amount of DNA, indicative of cell undergoing cell death by apoptosis (sub-G1 peak), was quantified (FIG. 3).

Data set [8] has as its system engineered MDA-MB-468 human breast cancer cells. Put plainly: TUNEL assay with flow cytometry on engineered cells. In kind it is cell-based. The following applies: 2 μM inhibitor added 6 hours after doxycycline, 24 hr total. The protocol:
TUNEL assay on engineered MDA-MB-468 human breast cancer cells after 24 hours of exposure to 2 μg/ml Doxycycline.
as §2

“Also recorded” adds a separate entry of the source. Where a SMILES comes first, the peptide text is derived from it. The star is where a group is joined. Cbz = O=C(OCc1ccccc1)*; CH2F = FC*

In the case of “p53 palindromic tetramer: C-terminal p53 palindromic tetrapeptide (four aa 353-393 segments, glycine-linked) expressed in cells from inducible or viral construct”, the “apoptosis of cancer cells in animals” value in data set [1] is recorded as “found to induce apoptosis”. Besides, in data set [2], the “apoptosis of cancer cells in animals” value is “found to induce apoptosis”. For the same molecule, the “effect on normal cells” value in data set [3] is “no to minimal effect”. The “decrease in viability (trypan blue exclusion)” value in data set [4] is recorded as “greater than 80%”. Also, the “cell death (sub-G1 peak, propidium iodide staining)” value in data set [5] (after doxycycline induction, stably expressing cell lines) turned out to be 43%. For the same molecule, the “apoptosis (propidium iodide staining and flow cytometry)” value in data set [5] (doxycycline induction, FIG. 4) is on record as “greater than 40%”. In addition, in data set [6] (24 hours doxycycline), the Fas expression entry is given as “increase in the expression” and the “caspase 8 expression” value is “increase in the expression”. In data set [6], the PARP cleavage product entry is “observed even 12 hours after” and the Bax expression entry is given as “increase in the expression”. Further, in data set [6] (listed as C-terminal p53 palindromic tetramer), the PARP cleavage product entry is “observed”.
Consider `CSCC[C@H](NC(=O)[C@H](CCCCN)NC(=O)[C@H](Cc1c[nH]c2ccccc12)NC(=O)[C@H](CCCCN)NC(=O)[C@H](CCCCN)NC(=O)[C@H](CCCCN)NC(=O)[C@H](CCCCN)NC(=O)[C@H](Cc1c[nH]cn1)NC(=O)[C@H](CCCNC(=N)N)NC(=O)[C@H](CO)NC(=O)[C@@H](NC(=O)[C@H](CO)NC(=O)[C@H](CCC(N)=O)NC(=O)CNC(=O)[C@H](CCCCN)NC(=O)[C@H](CCCCN)NC(=O)[C@H](CO)NC(=O)[C@H](CCCCN)NC(=O)[C@H](CC(C)C)NC(=O)[C@H](Cc1c[nH]cn1)NC(=O)[C@H](CO)NC(=O)[C@H](CO)NC(=O)[C@H](Cc1c[nH]cn1)NC(=O)[C@H](C)NC(=O)[C@H](CCCNC(=N)N)NC(=O)[C@H](CO)NC(=O)CN)[C@@H](C)O)C(=O)N[C@@H](CCCNC(=N)N)C(=O)N[C@@H](CCCNC(=N)N)C(=O)N[C@@H](CC(N)=O)C(=O)N[C@@H](CCC(N)=O)C(=O)N[C@@H](Cc1ccccc1)C(=O)N[C@@H](Cc1c[nH]c2ccccc12)C(=O)N[C@H](C(=O)N[C@@H](CCCCN)C(=O)N[C@H](C(=O)N[C@@H](CCC(N)=O)C(=O)N[C@@H](CCCNC(=N)N)C(=O)NCC(=O)O)C(C)C)C(C)C` [p53 C-terminal peptide (single repeat), reference compound] (H-GSRAHSSHLKSKKGQSTSRHKKKKWKMRRNQFWVKVQRG-OH; N-terminus and C-terminus assumed), for which the Bax expression result in data set [6] is on record as “did not”. Moreover, in data set [7], the “cell death (PI staining, sub-G1 population)” value amounted to 23%.
Regarding `CC[C@H](C)[C@H](NC(=O)OCc1ccccc1)C(=O)N[C@@H](CCC(=O)OC)C(=O)N[C@H](C(=O)N[C@@H](CC(=O)OC)C(=O)CF)[C@@H](C)O` [IETD-FMK] (Cbz-IE(OMe)TD(OMe)-CH2F), the “effect of caspase 8 inhibitor on death/TUNEL shift induced by palindromic peptide expression” value in data set [8] was “no shift occurs; also recorded: eliminated”.
